Test results published in ChEMBL document CHEMBL1201862, “PubChem BioAssay data set” (2004).
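Protocol summary: plate cells (96-well), add compound at 5 concentrations, incubate 48 h, interpolate endpoints linearly. Here, GI50 denotes the concentration required for 50% inhibition of growth.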 Activity calls are given as the source filed them. No stated cut-off is given here; in the data, active = GI50 up to about 1.1 µM and inactive = higher.

Columns and labels:
Assay in all cases: NCI anticancer screen, dose series, 48 h
UACC-62 = system: UACC-62
K562 = system: K562
NCI-H522 = system: NCI-H522
MOLT-4 = system: MOLT-4
OVCAR-5 = system: OVCAR-5
KM12 = system: KM12
PC-3 = system: PC-3
M14 = system: M14
A549 = system: A549
SK-OV-3 = system: SK-OV-3
NCI-H23 = system: NCI-H23
CCRF-CEM = system: CCRF-CEM
SF-295 = system: SF-295
NCI-H460 = system: NCI-H460
EKVX = system: EKVX
CAKI-1 = system: CAKI-1
HCT-15 = system: HCT-15
NCI/ADR-RES = system: NCI/ADR-RES
NCI-H226 = system: NCI-H226
HL-60 = system: HL-60

| SMILES | GI50 (UACC-62) | GI50 (K562) | GI50 (NCI-H522) | GI50 (MOLT-4) | GI50 (OVCAR-5) | GI50 (KM12) | GI50 (PC-3) | GI50 (M14) | GI50 (A549) | GI50 (SK-OV-3) | GI50 (NCI-H23) | GI50 (CCRF-CEM) | GI50 (SF-295) | GI50 (NCI-H460) | GI50 (EKVX) | GI50 (CAKI-1) | GI50 (HCT-15) [µM] | GI50 (NCI/ADR-RES) | GI50 (NCI-H226) | GI50 (HL-60) |
| --- | --- | --- | --- | --- | --- | --- | --- | --- | --- | --- | --- | --- | --- | --- | --- | --- | --- | --- | --- | --- |
| CN(C)/C=C/c1ccncc1 | > 100 µM (inactive) | > 100 µM (inactive) | > 100 µM (inactive) | 28.7 µM (inactive) | > 100 µM (inactive) | > 100 µM (inactive) | > 100 µM (inactive) | > 100 µM (inactive) | > 100 µM (inactive) | > 100 µM (inactive) | > 100 µM (inactive) | 48.6 µM (inactive) | > 100 µM (inactive) | > 100 µM (inactive) | > 100 µM (inactive) | > 100 µM (inactive) | > 100 | > 100 µM (inactive) | > 100 µM (inactive) |  |
| CNC(=S)/C(=N\Nc1[nH]cnc1C(N)=O)C(N)=S | 3.22 µM (inactive) | 0.444 µM (active) | 10.9 µM (inactive) | 0.711 µM (active) | > 31.6 µM (inactive) | 4.09 µM (inactive) | 5.52 µM (inactive) | 1.1 µM (active) | > 84.1 µM (inactive) | 1.51 µM (inactive) | 17.3 µM (inactive) | 0.689 µM (active) | 3.36 µM (inactive) | 5.31 µM (inactive) | 22.3 µM (inactive) | 1.71 µM (inactive) | 15.1 | 1.36 µM (inactive) | 5.73 µM (inactive) |  |
| CCOC(=O)c1c(-c2cccc3ccccc23)c(C#N)c(=S)n(C2OC(COC(C)=O)C(OC(C)=O)C(OC(C)=O)C2OC(C)=O)c1C (stereo not drawn) | > 100 µM (inactive) | > 100 µM (inactive) | > 100 µM (inactive) | > 100 µM (inactive) | > 100 µM (inactive) | > 100 µM (inactive) | 15.8 µM (inactive) | > 100 µM (inactive) | > 100 µM (inactive) | > 100 µM (inactive) | > 100 µM (inactive) | > 100 µM (inactive) | > 100 µM (inactive) | > 100 µM (inactive) |  |  | > 100 | > 100 µM (inactive) | > 100 µM (inactive) | > 100 µM (inactive) |
| CN1C(=O)C(/C=N/NC(=O)c2cccnc2)C(N)N(C)C1=O (stereo not drawn) | > 100 µM (inactive) | > 100 µM (inactive) | > 100 µM (inactive) | > 100 µM (inactive) | > 100 µM (inactive) | > 100 µM (inactive) | > 100 µM (inactive) | > 100 µM (inactive) | > 100 µM (inactive) | > 100 µM (inactive) | > 100 µM (inactive) | > 100 µM (inactive) | > 100 µM (inactive) | > 100 µM (inactive) | > 100 µM (inactive) | > 100 µM (inactive) | > 100 | > 100 µM (inactive) | > 100 µM (inactive) |  |
| CC(C)(C)c1cc(-c2ccc(-c3cc(C(C)(C)C)c(O)c(C(C)(C)C)c3)cc2)cc(C(C)(C)C)c1O | > 100 µM (inactive) | > 100 µM (inactive) | > 100 µM (inactive) | > 100 µM (inactive) | > 100 µM (inactive) | > 100 µM (inactive) | > 100 µM (inactive) | > 100 µM (inactive) | > 100 µM (inactive) | > 100 µM (inactive) | > 100 µM (inactive) |  | > 100 µM (inactive) |  | > 100 µM (inactive) | > 100 µM (inactive) | > 100 | > 100 µM (inactive) | > 100 µM (inactive) | > 100 µM (inactive) |
| CN(C)Cc1cc(/N=N/c2ccc(Cl)c(Cl)c2)ccc1O | 5.96 µM (inactive) | 2.61 µM (inactive) | 5.41 µM (inactive) | 6.21 µM (inactive) |  | 4.35 µM (inactive) | 11.6 µM (inactive) | 16 µM (inactive) | 13.9 µM (inactive) |  | 13.6 µM (inactive) | 4.43 µM (inactive) | 17.8 µM (inactive) | 6.35 µM (inactive) | 12.6 µM (inactive) | 12.6 µM (inactive) | 6.5 | 7.46 µM (inactive) | 17.9 µM (inactive) | 2.52 µM (inactive) |
| O=C1OCCC[C@H]2O[C@@H](COCc3ccccc3)C[C@@H]12 | > 100 µM (inactive) | > 100 µM (inactive) |  | > 100 µM (inactive) | > 100 µM (inactive) | > 100 µM (inactive) | > 100 µM (inactive) | > 100 µM (inactive) | > 100 µM (inactive) | > 100 µM (inactive) | > 100 µM (inactive) | > 100 µM (inactive) | > 100 µM (inactive) | > 100 µM (inactive) |  | > 100 µM (inactive) | > 100 | > 100 µM (inactive) | > 100 µM (inactive) | > 100 µM (inactive) |
| CN(C)CC1CCC/C(=C\c2ccc(OC(=O)/C=C/c3ccccc3)cc2)C1=O (stereo not drawn) | 3.34 µM (inactive) | 3.06 µM (inactive) |  | 1.3 µM (inactive) | 2.45 µM (inactive) | 1.28 µM (inactive) | 4.74 µM (inactive) | 2.36 µM (inactive) | 2.75 µM (inactive) | 24.2 µM (inactive) | 1.91 µM (inactive) | 0.265 µM (active) | 3.56 µM (inactive) | 4.88 µM (inactive) | 2.18 µM (inactive) | 1.82 µM (inactive) | 1.56 | 1.94 µM (inactive) | 2.96 µM (inactive) | 1.85 µM (inactive) |
| CC(C)(C)OC(=O)n1c(-c2ccccc2F)cc(=O)c2cc3c(cc21)OCO3 | 0.0588 µM (active) |  | 0.0267 µM (active) | 0.106 µM (active) | 6.53 µM (inactive) | 0.028 µM (active) | 0.0391 µM (active) | 1.4 µM (inactive) | 0.103 µM (active) | 0.12 µM (active) | 0.398 µM (active) | 0.0638 µM (active) | 0.05 µM (active) | 0.0656 µM (active) |  |  | 0.0505 | 0.0231 µM (active) | 0.0791 µM (active) | 0.0451 µM (active) |
| Cc1ccc(NC(=S)NNC(=O)c2cc(-c3ccccc3)nc3ccccc23)cc1 | 12.5 µM (inactive) | 13.4 µM (inactive) | 14.7 µM (inactive) | 14.3 µM (inactive) | 15.4 µM (inactive) | 11.1 µM (inactive) | 12 µM (inactive) | 11.9 µM (inactive) | 11.9 µM (inactive) | 16.5 µM (inactive) | 12.6 µM (inactive) |  | 5.92 µM (inactive) | 18.7 µM (inactive) |  | 18 µM (inactive) | 7.13 | 14 µM (inactive) | 18.7 µM (inactive) |  |
| COc1ccccc1C(O)[C@@H]1C[C@@H]2[C@H]3CC[C@@](C)([C@@H]2O1)C3(C)C (stereo partly drawn) | 16.6 µM (inactive) | 21.3 µM (inactive) | 17.4 µM (inactive) | 15.4 µM (inactive) | 19.5 µM (inactive) | 20.8 µM (inactive) | 20.7 µM (inactive) | 21.4 µM (inactive) | 21.2 µM (inactive) | 27.4 µM (inactive) | 19.5 µM (inactive) | 20.8 µM (inactive) | 18.4 µM (inactive) | 19.5 µM (inactive) | 45.2 µM (inactive) | 23.8 µM (inactive) | 20.7 | 17.5 µM (inactive) |  | 20 µM (inactive) |
| COC(=O)C1CCC(=O)N1CN(C(C)=O)c1cc(OC)ccc1OC (stereo not drawn) | > 100 µM (inactive) | > 100 µM (inactive) | > 100 µM (inactive) | > 100 µM (inactive) | > 100 µM (inactive) | > 100 µM (inactive) | > 100 µM (inactive) | > 100 µM (inactive) | > 100 µM (inactive) | > 100 µM (inactive) | > 100 µM (inactive) |  | > 100 µM (inactive) | > 100 µM (inactive) | > 100 µM (inactive) | > 100 µM (inactive) | > 100 | > 100 µM (inactive) | > 100 µM (inactive) | > 100 µM (inactive) |
| O=C(CC(C(=O)c1ccsc1)c1cccs1)c1ccsc1 (stereo not drawn) | 31.5 µM (inactive) | 42.8 µM (inactive) |  | 28.5 µM (inactive) | > 100 µM (inactive) | 31.5 µM (inactive) | 28.5 µM (inactive) | 56 µM (inactive) | 46.6 µM (inactive) | 54.6 µM (inactive) | 32.6 µM (inactive) | 15.2 µM (inactive) | 43.7 µM (inactive) | 53.8 µM (inactive) | 49.9 µM (inactive) | > 100 µM (inactive) | 45.6 | 17.5 µM (inactive) | > 100 µM (inactive) | 31.8 µM (inactive) |
| CC1CC[C@@]2(OC1)OC1C[C@H]3[C@@H]4CCC5CC(O)CC[C@]5(C)[C@H]4C/C(=N\N(C)C)[C@]3(C)C1[C@@H]2C (stereo partly drawn) | 27.6 µM (inactive) | 28.2 µM (inactive) |  | 24.7 µM (inactive) | 27.1 µM (inactive) | 25.5 µM (inactive) | 25.6 µM (inactive) | 32.3 µM (inactive) | 35.3 µM (inactive) | 18.7 µM (inactive) | 20.3 µM (inactive) | 37.8 µM (inactive) |  | 30.5 µM (inactive) |  |  | 23.4 | 19.5 µM (inactive) | 34.2 µM (inactive) | 22.2 µM (inactive) |
| CSC(=S)NN=C1CCCCC1 | 18.7 µM (inactive) | 27.4 µM (inactive) | 24.8 µM (inactive) | 15.7 µM (inactive) |  | 28.7 µM (inactive) | 30.8 µM (inactive) | 13.6 µM (inactive) | 26.7 µM (inactive) | > 100 µM (inactive) | 29.9 µM (inactive) | 26.1 µM (inactive) | 28.4 µM (inactive) | 32.1 µM (inactive) | 22.8 µM (inactive) | 20.1 µM (inactive) | 29.9 | 24.7 µM (inactive) | 13.9 µM (inactive) |  |
